The results in this text go back to patent US20200147158A1, “SANGHUANGPORUS SANGHUANG STRAINS AND THEIR PRODUCTS, EXTRACTS AND APPLICATIONS” (FOOD INDUSTRY RESEARCH AND DEVELOPMENT INSTITUTE, priority 2018, published 2020).

Assay type in all cases: cell-based
For assay [1], the target named is T1, ER-β (Homo sapiens, UniProt Q92731).
T1 construct: expressed in transfected cells; host or cells: CV-1 (Cercopithecus aethiops kidney cells)
Description: Evaluation of SERMs activity: ERβ/pERE-TA-SEAP reporter gene assay in transfected CV-1 cells. The note with it: for ER Subtype Activity ER-β: ratio to untreated cells (Medium only); for ER-β/ER-α: ratio of relative ER-β to ER-α activity. Here is the method: (§1) CV-1 cells (Cercopithecus aethiops kidney cells) were grown at a confluence of 70-80% and were harvested in a cell suspension at a concentration of 5×10^4 cell/ml. The cell suspensions were added to each well (100 μl/well) of 96-well plate and the 96-well plate was incubated at 37° C., 5% CO2 incubator overnight.
(§2) 500 μl jetPRIME® buffer. 5 μg pERE-TA-SEAP and 5 μg ERα DNA plasmid (or ERβ DNA plasmid) were mixed in 1.5 ml eppendorf, then 20 μl jetPRIME® Transfection Reagent and 1.5 ml medium were added. The DNA mixtures were added to each well of 96-well plate (20 μl) and the 96-well plate was incubated at 37° C., 5% CO2 incubator for 4 hours.
(§3) The supernatant solutions were removed from each well of 96-well plate, then 90 μl charcoal-treated. FBS medium without phenol red were added to each well of 96-well plate. The samples to be tested were added to the wells of 96-well plate, which was incubated in 37° C., 5% CO2 incubator for 48 to 72 hours. The cells were harvested for the subsequent reporter gene assay and cell toxicity assay.
25 μl cell culture supernatants were collected from the 96-well plate and, then added to a new luminescence microplate, which was incubated at 65° C. water bath for 30 minutes to remove the activity endogenous alkaline phosphatase, and was placed on ice for 5 minutes and was centrifuged (1,000 rpm) for one minute. 25 μl PhosphaLight™ assay buffers were added at room temperature for 5 minutes and 25 μl CSPD (Disodium 3-(4-methoxyspiro {1,2-dioxetane-3,2′-(5′-chloro)tricyclo [3.3 1.13,7]decan}-4-yl phenyl phosphate)-containing Phospha-Light™ reaction buffers were added at room temperature for 20 minutes. The luminescence microplate was placed in Victor™ Light 1420 Luminescence Counter and the SEAP enzyme activities were measured.
(In general: Reporter assays use an easily measured gene product as a stand-in for the process of interest.)

Assay [2] has as its target T2, ER-α (Homo sapiens, UniProt P03372).
T2 construct: expressed in transfected cells; host or cells: CV-1 (Cercopithecus aethiops kidney cells)
T2 sequence (P03372 1-595): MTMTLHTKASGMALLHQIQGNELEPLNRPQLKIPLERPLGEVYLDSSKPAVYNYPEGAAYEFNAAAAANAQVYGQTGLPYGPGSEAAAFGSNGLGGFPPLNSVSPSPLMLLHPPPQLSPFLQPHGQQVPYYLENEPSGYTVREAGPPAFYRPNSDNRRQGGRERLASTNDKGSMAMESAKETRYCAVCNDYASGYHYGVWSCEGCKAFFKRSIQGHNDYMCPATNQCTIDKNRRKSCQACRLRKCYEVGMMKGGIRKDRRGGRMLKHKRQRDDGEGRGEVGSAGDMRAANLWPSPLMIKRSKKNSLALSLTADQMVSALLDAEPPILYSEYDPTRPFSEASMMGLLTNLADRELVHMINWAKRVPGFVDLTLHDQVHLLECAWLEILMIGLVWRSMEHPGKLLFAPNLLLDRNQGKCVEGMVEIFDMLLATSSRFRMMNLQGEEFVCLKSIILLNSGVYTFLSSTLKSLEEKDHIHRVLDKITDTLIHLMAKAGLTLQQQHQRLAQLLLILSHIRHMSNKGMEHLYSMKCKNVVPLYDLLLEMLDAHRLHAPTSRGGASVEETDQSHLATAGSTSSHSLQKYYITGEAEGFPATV
Description: Evaluation of SERMs activity: ERα/pERE-TA-SEAP reporter gene assay in transfected CV-1 cells. The note with it: 25 μg/mL, ratio to untreated cells (Medium only). Here is the method:
as §1, §2, §3
(§4) 25 μl cell culture supernatants were collected from the 96-well plate and, then added to a new luminescence microplate, which was incubated at 65° C. water bath for 30 minutes to remove the activity endogenous alkaline phosphatase, and was placed on ice for 5 minutes and was centrifuged (1,000 rpm) for one minute.

For assay [3], the target named is T3, Estrogen Receptor (ER) (Homo sapiens, UniProt P03372).
T3 construct: endogenous in cells; host or cells: MCF-7
T3 sequence (P03372 1-595): T2 sequence (P03372 1-595)
Description: ER total activity assay (pERE-TA-SEAP reporter in MCF-7 cells). The note with it: for ER activity (FIG. 1, in words): 2 μg/ml, 5 μg/ml and 10 μg/ml; for ER activity compared with 17-β Estradiol (positive control), FIG. 1, in words: MCF-7 cells. As to the method: ER is a ligand-activated enhancer protein that is a member of the steroid/nuclear receptor superfamily. […] Secreted alkaline phosphatase (SEAP) is a reporter widely used to study promoter activity or gene expression.
The 1 ml 0.05% trypsin-EDTA solution was added to 80% confluence (on Day 5, if cells were in log phase) of MCF-7 cells in a T75 flask at 37° C. for 5 minutes. After the cells were detached, 5 ml charcoal-treated FBS-containing medium were added to suspend the cells. The charcoal-treated FBS-containing PBS medium were added 2 ml cell suspensions to the final volume of 10 ml of a mixture. The mixture was dispensed into each well (100 μl/well, 2×10^4 cells/well) of a 96-well plate by 8-channel pipette, and the 96-well plate was placed at 37° C. and 5% CO2 overnight to obtain about 70% confluence.
To transfect cells to express the ERE, a transfection mixture was prepared. TransIT®-LT1 Transfection Reagent is a broad spectrum reagent that provides high efficiency plasmid DNA delivery in many mammalian cell types including primary cells. Specifically, 1 ml Opti-MEM®, 14 μl TransIT®-LT1 Transfection Reagent and 5 μg pERE-TA-SEAP were added into a 1.5 ml Eppendorf and let the transfection mixture stand for 15-30 minutes.
Transfection mixture containing TransIT-DNA was dispensed into each well (10 μl/well) of a 96-well plate, and the 96-well plate was placed at 37° C. and 5% CO2 for 24 hours. The supernatants were removed from the 96-well plate using 8-channel pipette.
as §4

T1 sequence (Q92731 whole entry, species assumed): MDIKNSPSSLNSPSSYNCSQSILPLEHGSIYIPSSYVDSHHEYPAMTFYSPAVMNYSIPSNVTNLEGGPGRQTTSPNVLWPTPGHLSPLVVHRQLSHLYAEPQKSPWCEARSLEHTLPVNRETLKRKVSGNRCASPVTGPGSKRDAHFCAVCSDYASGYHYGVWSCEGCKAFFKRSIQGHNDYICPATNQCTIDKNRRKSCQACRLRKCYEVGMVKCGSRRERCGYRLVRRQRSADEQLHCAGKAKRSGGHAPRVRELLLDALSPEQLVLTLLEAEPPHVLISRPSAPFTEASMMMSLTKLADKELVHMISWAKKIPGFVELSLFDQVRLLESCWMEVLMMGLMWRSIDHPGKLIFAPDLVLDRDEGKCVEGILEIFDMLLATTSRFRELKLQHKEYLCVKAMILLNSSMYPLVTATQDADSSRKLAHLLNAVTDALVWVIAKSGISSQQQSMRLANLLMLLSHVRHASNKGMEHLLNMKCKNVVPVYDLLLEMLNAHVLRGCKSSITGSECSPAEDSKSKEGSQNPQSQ

As for `C[C@]12CC[C@@H]3c4ccc(O)cc4CC[C@H]3[C@@H]1CC[C@@H]2O` [17-β Estradiol (E2), 17-β Estradiol, reference compound], the “ER Subtype Activity ER-β” value in assay [1] (200 nM) is listed as 3.70 ± 0.45.
Take `C=C1CCCC(C)(C)C1CC/C(C)=C/C(=O)O` (stereo not shown) [Compound 1, (E)-5-(2,2-dimethyl-6-methylenecyclohexyl)-3-methylpent-2-enoic acid]: the “ER-β versus ER-α activity (in words)” value in assay [1] is given as “superior ER-β activity over ER-α activity”. In addition, in assay [1] (25 μg/mL), the ER-β/ER-α came out at 3.1 and the “ER Subtype Activity ER-β” value is given as 3.80 ± 0.11. In assay [2], the “ER Subtype Activity ER-α” value came out at 1.21 ± 0.53. Besides, in assay [3], the “ER activity (FIG. 1, in words)” value was “significant ER activity” and the “ER activity compared with 17-β Estradiol (positive control), FIG. 1, in words” value is “superior ER activity over 17-β Estradiol”.
In the case of `C=C1CCCC(C)(C)[C@@H]1/C=C/C(C)=C/C(=O)O` [Compound 2, (+)-(2E,-4E)-5-((S)-2,2-dimethyl-6-methylenecyclohexyl)-3-methylpenta-2,4-dienoic acid], in assay [1], the “ER-β versus ER-α activity (in words)” value is listed as “superior ER-β activity over ER-α activity”. Moreover, in assay [1] (25 μg/mL), the ER-β/ER-α stood at 2.2 and the “ER Subtype Activity ER-β” value is given as 2.53 ± 0.77. Also, in assay [2], the “ER Subtype Activity ER-α” value was determined as 1.16 ± 0.16. In addition, in assay [3], the “ER activity (FIG. 1, in words)” value is reported as “significant ER activity” and the “ER activity compared with 17-β Estradiol (positive control), FIG. 1, in words” value was “superior ER activity over 17-β Estradiol”.
